Tests used:
[1] = based on the safety data sheet (SDS); cited from earlier work

| SMILES | Solubility in brine (in words) | Biodegradability (in words) [1] | Toxicity as an individual substance (in words) [1] |
| --- | --- | --- | --- |
| [O]=[Mg] [MgO] | insoluble |  |  |
| [Cl-].[Cl-].[Mg+2] [magnesium chloride] |  | good biodegradability | non-toxic |
